In PMC6493465 (Oncotarget, 2019):
Read-outs that look alike come from different tables or passages of the source.

Legend:
[1] = system: MOLM-13 cells; assay: Annexin-V staining (apoptosis), MOLM-13; type: cell-based, human; conditions: 48 hours; for percentage of annexin V-positive cells: control 4.1%
Description: MV4-11 cells were seeded in 12-well plates at a concentration of 2 × 10^5 cells/well and cultured overnight. […] MOLM-13 cells were seeded in 12-well plates at a concentration of 1 × 10^5 cells/well and cultured overnight.
Cells were harvested and incubated with Guava® Nexin Reagent (Merck Millipore Corporation, Billerica, MA). Annexin-V-positive cells were assessed using a Guava® PCA microcytometer (Merck Millipore Corporation); the percentage of annexin-V-positive cells (2000 cells per sample) was analyzed using CytoSoft™ software (Merck Millipore Corporation). Mean percentages of annexin-V-positive cells were derived from three independent experiments.

[2] = Pharmacokinetic assays (plasma and tumor) in nude mice xenografted with MV4-11 cells; type: in vivo, mouse; conditions: for AUC24 ratio: combination versus the other group; for Cmax / Tmax / AUC: nude, mouse; for AUC: read-out: AUC24
Description: Plasma samples were prepared by centrifugation (n=3 per group; one sample in the combination group was excluded due to improper handling). […] These assays were conducted by Astellas Research Technologies Co., Ltd. under the guidance of Analysis & Pharmacokinetics Research Laboratories, Astellas Pharma, Inc., or by Nemoto Science Co., Ltd. (Ibaraki, Japan). […] Body weight and tumor assessments obtained on with MV4-11 cells received one of the following Day −1 were designated as Day 0 (baseline) measurements. combination treatments: 1. […] The percent tumor regression was calculated using the formula: […]

[3] = system: MV4-11 cells; assay: Antitumor effects in mice xenografted with MV4-11 cells; type: in vivo, mouse; conditions: MV4-11 xenograft; for Regression of Tumor / Inhibition of Tumor Growth: Day 21
Description: Four or five-week-old male nude mice (CanN.Cg-Foxn1nu/Crl/Crlj[nu/nu]; Charles River Laboratories Japan, Inc., Kanagawa, Japan) were maintained under specific pathogen-free conditions and received a standard diet and water supply throughout the study. All animal experimental procedures were performed in accordance with the Animal Ethics Committee of Astellas Pharma, Inc. For in vivo experiments, suspensions of MV4-11 and MOLM-13 cells in PBS at a concentration of 1 × 10^8 cells/mL were mixed with an equivalent volume of Matrigel® Basement Membrane Matrix, resulting in a final cell concentration of 5 × 10^7 cells/mL. The cells were subcutaneously injected into the flanks of mice at a concentration of 5 × 10^6 cells/0.1 mL/mouse. After tumor establishment, mice were divided into groups with similar mean tumor volume across groups.
Dosing volumes were 10 mL/kg for oral and intraperitoneal (IP) administration, and 5 or 10 mL/kg for intravenous (IV) administration. Treatment was administered once daily on designated days. The first day of treatment was designated as Day 0 and observation continued until Day 20 or 21 for mice xenografted with MV4-11 cells and Day 16 for mice xenografted with MOLM-13 cells. In mice xenografted with MV4-11 cells for experiments involving triple combination treatment, the control group received oral administration of vehicle (0.5% methylcellulose, Days 0–20), IP administration of vehicle (saline, Days 0–4), and IV administration of vehicle (saline, Days 0–2).
The AraC/DNR group received oral vehicle (0.5% methylcellulose, Days 0–20), IP AraC (50 mg/kg/day, Days 0–4), and IV DNR (2 mg/kg/day, Days 0–2). The AraC/IDR group received vehicle (Days 0–20), IP AraC (50 mg/kg/day, Days 0–4), and IV IDR (0.5 mg/kg/day, Days 0–2). […] For experiments involving Aza, the control group received oral vehicle (0.5% methylcellulose, Days 0–20) and IV vehicle (saline, Days 0–4). The Aza group received oral vehicle (0.5% methylcellulose, Days 0–20) and IV Aza (3 mg/kg/day, Days 0–4). […] For mice that received chemotherapy only, administration schedules for each agent were the same as those described in the triple combination groups.
Mice with established tumors were selected and divided into groups on Day −1 or Day 0, so that the mean tumor volumes were similar across groups. Body weights and tumor volumes assessed on Day −1 were designated as Day 0 values. Body weight and tumor diameter were measured for each experimental group; antitumor activity was expressed as the percent inhibition of tumor growth and the percent of tumor regression (further details are outlined in the Supplementary Materials). […] Complete regression was defined as no palpable or observable tumor. […]
Tumor evaluation 100 × (1 – [mean tumor volume of each group on the last day of observation] / [mean tumor volume of each
Body weight and tumor diameter were measured group on Day 0]) in xenografted nude mice xenografted with MV4-11 cells on the indicated days for each experimental group: 1. Treatments for pharmacokinetic assays […]
and 21. Body weight and tumor assessments obtained on with MV4-11 cells received one of the following Day −1 were designated as Day 0 (baseline) measurements. combination treatments: 1.
Tumor diameter was measured using a caliper and tumor 0.5% methylcellulose); 2. Oral methylcellulose (0.5%) in volume was determined by calculating the volume of an combination with IV IDR (0.5 mg/kg) and IP AraC (50 ellipsoid (ie, Length × Width2 × 0.5). The percent inhibition mg/kg); 3. […]
of tumor growth was calculated using the formula: kg) and IP AraC (50 mg/kg). For combination PK assays […]
on the last day of observation) – (tumor volume of each with MV4-11 received one of the following: […]
of each mouse on the last day of observation) – (tumor methylcellulose (0.5%) plus IV Aza (3 mg/kg); 3. Oral […]
The percent tumor regression was calculated using […]

[4] = plasma, iv, 3 mg/kg, azacitidine in plasma, gilteritinib 3, azacitidine 3 mg/kg
[5] = plasma, iv, azacitidine in plasma, doses gilteritinib 3, azacitidine 0 mg/kg
[6] = tumor, iv, 3 mg/kg, azacitidine in tumor, gilteritinib 3, azacitidine 3 mg/kg
[7] = Aza experiment: oral gilteritinib 3 mg/kg/day Days 0-20, IV Aza 3 mg/kg/day Days 0-4
[8] = plasma, po, 3 mg/kg, gilteritinib in plasma, gilteritinib 3 mg/kg, AraC 0, IDR 0
[9] = plasma, po, 3 mg/kg, gilteritinib in plasma, gilteritinib 3, AraC 50, IDR 0.5 mg/kg
[10] = plasma, po, 3 mg/kg, gilteritinib in plasma, gilteritinib 3, azacitidine 0 mg/kg
[11] = plasma, po, 3 mg/kg, gilteritinib in plasma, gilteritinib 3, azacitidine 3 mg/kg
[12] = tumor, po, 3 mg/kg, gilteritinib in tumor, gilteritinib 3 mg/kg, AraC 0, IDR 0
[13] = tumor, po, 3 mg/kg, gilteritinib in tumor, gilteritinib 3, AraC 50, IDR 0.5 mg/kg
[14] = tumor, po, 3 mg/kg, gilteritinib in tumor, gilteritinib 3, azacitidine 0 mg/kg
[15] = tumor, po, 3 mg/kg, gilteritinib in tumor, gilteritinib 3, azacitidine 3 mg/kg

With `Nc1ncn([C@@H]2O[C@H](CO)[C@@H](O)[C@H]2O)c(=O)n1` [Aza, Azacitidine] the “mean percentage of annexin V-positive cells” value ([1]; single agent: IDR 3 nM, AraC 100 nM or Aza 1000 nM) was 21.9%, the AUC24 ratio ([2]; azacitidine in plasma) was 0.87 and the AUC24 ratio ([2]; azacitidine in tumor) was 1.17. It also gave an AUC24 ([2]; azacitidine in tumor, doses gilteritinib 3, azacitidine 0 mg/kg) of 323 ng·h/g, an AUC24 ([2]; azacitidine in tumor, gilteritinib 3, azacitidine 3 mg/kg) of 378 ng·h/g and a Cmax [2, 4] of 3440 ng/mL. It also gave a Tmax [2, 4] of 0.08 h, an AUC [2, 4] of 1610 ng·h/mL and a Cmax [2, 5] of 3390 ng/mL. For the same compound, the Tmax [2, 5] was 0.08 h, the AUC [2, 5] was 1850 ng·h/mL and the Cmax [2, 6] was 96.8 ng/g. For the same compound, the Tmax [2, 6] was 0.5 h, the Cmax ([2]; tumor, iv, azacitidine in tumor) was 61.3 ng/g and the Tmax ([2]; tumor, iv, azacitidine in tumor, doses gilteritinib 3, azacitidine 0 mg/kg) was 0.08 h. The “body weight on Day 21 between control and treatment groups” value [3] was “No significant differences”, the “Regression of Tumor” value ([3]; Aza experiment) was 0% and the “Inhibition of Tumor Growth” value [3, 7] was 5%.

With `CCc1nc(C(N)=O)c(Nc2ccc(N3CCC(N4CCN(C)CC4)CC3)c(OC)c2)nc1NC1CCOCC1` [Gilteritinib] the “percentage of annexin V-positive cells” value ([1]; gilteritinib alone 30 nM) was 32.0%, the “percentage of annexin V-positive cells” value ([1]; gilteritinib alone 100 nM) was 52.4% and the “difference in PK profile alone versus in combination” value ([2]; alone or in combination with AraC/IDR or Aza) was “no discernable difference”. It also gave an AUC24 ([2]; gilteritinib in tumor, gilteritinib 3 mg/kg, AraC 0, IDR 0) of 6430.2 ng·h/g, an AUC24 ([2]; gilteritinib in tumor, gilteritinib 3, AraC 50, IDR 0.5 mg/kg) of 6639.0 ng·h/g and an AUC24 ([2]; gilteritinib in tumor, gilteritinib 3, azacitidine 0 mg/kg) of 3821 ng·h/g. For the same compound, the AUC24 ([2]; gilteritinib in tumor, gilteritinib 3, azacitidine 3 mg/kg) was 3964 ng·h/g, the Cmax [2, 8] was 21.3 ng/mL and the Tmax [2, 8] was 2 h. It also gave an AUC [2, 8] of 156 ng·h/mL, a Cmax [2, 9] of 22.3 ng/mL and a Tmax [2, 9] of 2 h. For the same compound, the AUC [2, 9] was 199 ng·h/mL, the Cmax [2, 10] was 11 ng/mL and the Tmax [2, 10] was 2 h. The AUC [2, 10] was 65.8 ng·h/mL, the Cmax [2, 11] was 10.1 ng/mL and the Tmax [2, 11] was 2 h. It also gave an AUC [2, 11] of 69.1 ng·h/mL, a Cmax [2, 12] of 677 ng/g and a Tmax [2, 12] of 2 h. It also gave a Cmax [2, 13] of 437 ng/g, a Tmax [2, 13] of 4 h and a Cmax [2, 14] of 387 ng/g. For the same compound, the Tmax [2, 14] was 4 h, the Cmax [2, 15] was 349 ng/g and the Tmax [2, 15] was 4 h. The “time after administration at which plasma concentrations peaked” value ([2]; plasma, alone or in combination with AraC/IDR or Aza) was 2 h, the “concentration in tumor fraction versus plasma fraction” value ([2]; xenografted mice) was “higher in the tumor fraction” and the “body weight on Day 21 between control and treatment groups” value [3] was “No significant differences”. For the same compound, the “Regression of Tumor” value ([3]; AraC/DNR experiment) was 0%, the “Inhibition of Tumor Growth” value ([3]; AraC/DNR experiment: oral gilteritinib 3 mg/kg/day Days 0-20, IP AraC 50 mg/kg/day Days 0-4, IV DNR 2 mg/kg/day Days 0-2) was 78% and the “Regression of Tumor” value ([3]; AraC/IDR experiment) was 0%. The “Inhibition of Tumor Growth” value ([3]; AraC/IDR experiment: oral gilteritinib 3 mg/kg/day Days 0-20, IP AraC 50 mg/kg/day Days 0-4, IV IDR 0.5 mg/kg/day Days 0-2) was 85%, the “Regression of Tumor” value ([3]; Aza experiment) was 0% and the “Inhibition of Tumor Growth” value [3, 7] was 71%. For the same compound, the “mean (±SEM) tumor weight on Day 21” value ([3]; AraC/DNR experiment, control 1.234±0.150 g) was 0.441 ± 0.076 g and the “mean tumor weight on Day 21” value ([3]; AraC/IDR experiment, control 1.64±0.12 g) was 0.53 ± 0.09 g.
